Common to all, as to format: functional
In assay [1] the test system is Mycobacterium tuberculosis. The assay is described as follows: Antimycobacterial activity against Mycobacterium tuberculosis DR1 harboring mmpL3 V681I mutant assessed as inhibition of bacterial growth measured after 21 days by microbroth dilution method. To be noted: time 21 day.
Assay [2] has as its system Mycobacterium tuberculosis. Nature of the assay: Antimycobacterial activity against Mycobacterium tuberculosis 53.3 harboring Rv2466c W28S mutant assessed as inhibition of bacterial growth measured after 21 days by microbroth dilution method. The conditions noted are these: time 21 day.
Assay [3] has as its system Mycobacterium tuberculosis. The assay is described as follows: Antimycobacterial activity against Mycobacterium tuberculosis 88.7 harboring pyrG V186G mutant assessed as inhibition of bacterial growth measured after 21 days by microbroth dilution method. To be noted: time 21 day.
For assay [4], the system named is Mycobacterium tuberculosis. The assay is described as follows: Antimycobacterial activity against Mycobacterium tuberculosis NTB1 harboring DprE1 G387S mutant assessed as inhibition of bacterial growth measured after 21 days by microbroth dilution method. The conditions noted are these: time 21 day.
In assay [5] the test system is Mycobacterium tuberculosis. The assay is described as follows: Antimycobacterial activity against Mycobacterium tuberculosis 81.10 harboring EthA del (1109 to 37 residues) mutant assessed as inhibition of bacterial growth measured after 21 days by microbroth dilution method. To be noted: time 21 day.
Assay [6] concerns Mycobacterium tuberculosis. The assay is described as follows: Antimycobacterial activity against Mycobacterium tuberculosis Ty1 harboring Rv3405c C190T mutant assessed as inhibition of bacterial growth measured after 21 days by microbroth dilution method. The conditions noted are these: time 21 day.
Assay [7] concerns Mycobacterium tuberculosis. The assay is described as follows: Antimycobacterial activity against streptomycin, isoniazid, rifampicin, ethambutol, pyrazinamide, ethionamide and capreomycin resistant Mycobacterium tuberculosis IC2 assessed as inhibition of bacterial growth measured after 21 days by microbroth dilution method. The conditions noted are these: IC2, 504 h, time 21 day.

In brackets after ≈: the same amount, converted by molar mass. Bounds are passed on as bounds.

In the case of `Clc1ccc(CN2CCC(C3c4ccccc4-c4ccccc43)C2)cc1` (centres undefined), the MIC in assay [1], in assay [2], in assay [3], in assay [4], in assay [5] and in assay [6] was 0.5 µg/mL (≈ 1.39 µM) each time. The MIC in assay [7] turned out to be 0.5 µg/mL (≈ 1.39 µM).
As to `NNC(=O)c1ccncc1` [ISONIAZID], the MIC in assay [1], in assay [2], in assay [3], in assay [4], in assay [5] and in assay [6] was 0.025 µg/mL (≈ 0.182 µM) throughout. In addition, in assay [7], the minimum inhibitory concentration (MIC) was over 0.2 µg/mL.

These data come from ChEMBL document CHEMBL5257033, “Pyrrolidinone and pyrrolidine derivatives: Evaluation as inhibitors of InhA and Mycobacterium tuberculosis” (Eur J Med Chem, 2016).
